{
  "source": "paper PMC11645267",
  "about": "“Novel pharmacologic inhibition of lysine-specific demethylase 1 as a potential therapeutic for glioblastoma” (Cancer Gene Therapy, 2024)",
  "key": {"[1]": {"target": "T1, LSD2 (Homo sapiens, UniProt Q8NB78)", "T1 sequence (Q8NB78 1-822)": "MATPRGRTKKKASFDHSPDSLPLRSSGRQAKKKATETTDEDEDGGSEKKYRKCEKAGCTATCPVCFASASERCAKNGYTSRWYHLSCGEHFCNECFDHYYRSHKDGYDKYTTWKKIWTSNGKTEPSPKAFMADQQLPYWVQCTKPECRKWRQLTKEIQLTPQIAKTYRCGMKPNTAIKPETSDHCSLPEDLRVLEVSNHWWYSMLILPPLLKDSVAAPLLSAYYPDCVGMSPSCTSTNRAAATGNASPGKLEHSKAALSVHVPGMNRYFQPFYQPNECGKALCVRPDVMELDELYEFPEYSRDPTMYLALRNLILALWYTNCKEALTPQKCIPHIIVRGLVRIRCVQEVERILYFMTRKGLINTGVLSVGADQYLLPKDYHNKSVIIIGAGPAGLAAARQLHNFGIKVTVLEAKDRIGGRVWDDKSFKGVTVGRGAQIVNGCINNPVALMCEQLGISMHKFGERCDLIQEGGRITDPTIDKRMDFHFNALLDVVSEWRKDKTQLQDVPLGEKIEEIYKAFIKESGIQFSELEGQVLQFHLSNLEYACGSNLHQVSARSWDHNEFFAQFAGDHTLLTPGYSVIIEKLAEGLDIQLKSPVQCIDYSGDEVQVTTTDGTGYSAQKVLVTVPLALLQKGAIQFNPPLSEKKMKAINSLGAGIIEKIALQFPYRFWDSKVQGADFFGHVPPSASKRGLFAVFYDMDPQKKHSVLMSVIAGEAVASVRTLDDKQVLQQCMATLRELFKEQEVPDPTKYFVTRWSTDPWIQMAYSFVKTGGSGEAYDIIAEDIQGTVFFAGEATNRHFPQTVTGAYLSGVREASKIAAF", "assay": "Enzyme inhibition assay (in vitro peroxidase assay) against LSD2", "method": "Enzyme inhibition assays against LSD1, LSD2, MAO-A, and MAO-B were performed as previously described [25]. Technical replicates, n = 3."}, "[2]": {"test_system": "F3", "assay": "Western blot of global histone modifications", "format": "cell-based", "conditions": "F3, 5 μM, 96 h", "protocol": "The effects of S2172 on global histone modifications in GSCs were examined using western blot analysis. GSC cells were treated with 5 μM of S2172 since […] of the cells are still viable at this concentration (Fig. 2, Supplementary Fig. S1E). […] Treatment of GSCs with S2172 increased the overall levels of H3K4me2 as well as H3K9me2. However, these changes were not statistically significant (Fig. 2A, B). […]\ninstructions. For GSC cells, the CellTiter-Glo 3D Viability Assay (Promega, Madison, WI, USA) was used to measure the living cells. All proliferation experiments were repeated […]\nThe density of bands was quantified using ImageJ software (https://imagej.nih.gov/ij/). […]\nWhen mice were scanned with MRI, mice were anesthetized with isoflurane (3% in air) and placed in MRS 3017 Benchtop MRI Systems (MR Solutions, Guildford, UK). Using MRI images, tumor volumes were obtained by compiling tumor areas from all slices that contained tumors and calculated by ImageJ software (https://imagej.nih.gov/ij/) {Towner, […]\nA. Left panel: Western blot analysis of H3K4me1, H3K4me2, H3K4me3, and H3K9me2 after treatment with either DMSO or S2172 5μM for 96 h in normal neural stem cell F3 . […] Right panel: Quantification of signal intensities of the Western blot. […]\nC. […] Right panel: Quantification of band signal intensities from the Western blot. […]"}},
  "data": [
    {"smiles": "NC1CCC(NC2CC2c2cc(F)cc(F)c2OCc2ccccc2)CC1", "note": "(stereo not drawn) [S2172]", "values": [
      {"measurement": "Ki", "setting": "[1]", "result": "> 250", "unit": "µM"},
      {"measurement": "Inhibition of LSD2 (in words)", "setting": "[1]; in vitro peroxidase assay", "result": "not inhibited"},
      {"measurement": "changes in the levels of H3K4me1, H3K4me2, H3K4me3, and H3K9me2", "setting": "[2]", "result": "not significant"}
    ]}
  ]
}
